Results from ChEMBL document CHEMBL1201862, “PubChem BioAssay data set” (2004).
Active and inactive are the calls of the source.

Assays:
[1] = biological target: Photoreceptor-specific nuclear receptor (Homo sapiens, UniProt Q9Y5X4); assay type: functional;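 also: potency for compounds that break the NR2E3 corepressor complex and count as activators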
[2] = biological target: Peroxisome proliferator-activated receptor gamma/Nuclear receptor corepressor 2 (Homo sapiens, UniProt P37231+Q9Y618); assay type: functional
[3] = luciferase reporter signal suppression in cells – H4 neuroglioma cells, luminescence, dose response (AID 1990); assay type: functional, cell-based
[4] = biological target: T1, RNA-binding protein pos-1 (Caenorhabditis elegans, UniProt G5EF15); experiment: disruptors of C. elegans POS-1 RNA interaction – biochemical, fluorescence polarization, dose response (AID 1964);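 also: purified POS-1 fused to maltose binding protein made in E. coli; potency of compounds blocking POS-1 binding to fluorescent RNA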
T1 sequence (G5EF15 whole entry): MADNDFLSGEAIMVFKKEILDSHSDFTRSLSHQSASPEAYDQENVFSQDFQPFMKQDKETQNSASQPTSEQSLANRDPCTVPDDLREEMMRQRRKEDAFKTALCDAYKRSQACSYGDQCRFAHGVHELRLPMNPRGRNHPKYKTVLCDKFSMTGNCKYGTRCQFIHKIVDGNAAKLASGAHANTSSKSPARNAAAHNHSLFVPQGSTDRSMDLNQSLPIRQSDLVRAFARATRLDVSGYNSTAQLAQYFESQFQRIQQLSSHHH

[5] = Luminescence Cell-Based Dose Response HTS to Identify Inhibitors of 5'UTR Stem-Loop Driven Prion Protein mRNA Translation in H4 Neuroglioblastoma Cells. [Related pubchem assays: 1827 (Project Summary), 1813 (Primary HTS)]; assay type: functional
Cytochrome P450 2D6 = Cytochrome P450 2D6 (Homo sapiens, UniProt P10635); experiment: qHTS Assay for Inhibitors and Substrates of Cytochrome P450 2D6. [Related pubchem assays: 410 ]; assay type: ADME; conditions: read-out: Potency
[6] = biological target: T2, Zinc finger protein mex-5 (Caenorhabditis elegans, UniProt Q9XUB2); experiment: potency of MEX-5 RNA-binding blockers – biochemical, C. elegans, fluorescence polarization, dose response (AID 1960)
T2 sequence (Q9XUB2 whole entry): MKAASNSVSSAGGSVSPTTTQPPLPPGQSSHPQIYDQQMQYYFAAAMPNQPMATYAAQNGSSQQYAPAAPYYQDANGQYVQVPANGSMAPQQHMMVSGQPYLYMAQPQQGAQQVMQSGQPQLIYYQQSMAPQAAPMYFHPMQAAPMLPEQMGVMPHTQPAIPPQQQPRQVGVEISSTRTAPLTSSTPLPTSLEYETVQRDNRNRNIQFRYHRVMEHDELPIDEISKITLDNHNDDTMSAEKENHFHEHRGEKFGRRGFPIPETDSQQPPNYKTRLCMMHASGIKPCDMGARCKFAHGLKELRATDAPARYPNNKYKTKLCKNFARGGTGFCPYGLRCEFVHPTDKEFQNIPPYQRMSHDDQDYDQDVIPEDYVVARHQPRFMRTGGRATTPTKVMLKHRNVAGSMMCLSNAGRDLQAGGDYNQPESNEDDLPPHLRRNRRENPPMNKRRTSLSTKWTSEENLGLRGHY

[7] = alpha-synuclein stem-loop luciferase translation blockers – H4 neuroglioma cells, luminescence, confirmation (AID 1988); assay type: functional, cell-based
Cytochrome P450 2C9 = Cytochrome P450 2C9 (Homo sapiens, UniProt P11712); conditions: Potency
[8] = biological target: Serine/threonine-protein phosphatase PP1-alpha catalytic subunit (Homo sapiens, UniProt P62136); experiment: inhibition of protein phosphatase 1 activity – biochemical, fluorescence, dose response (AID 2403);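 also: phosphatase turnover of OMFP into fluorescent 3-O-methylfluorescein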
[9] = biological target: Serine/threonine-protein phosphatase (Homo sapiens, UniProt Q9BPW0); experiment: Counterscreen for inhibitors of PP1: fluorescence-based biochemical high throughput dose response assay to identify inhibitors of Protein Phosphatase 5 (PP5). [Related pubchem assays: 2034 (Summary (PP5 inhibitors)), 1987 (PP5 inhibitors in singlate), 2235 (PP1 inhibitors in singlate)]
[10] = THP-1 cell cytotoxicity, dose response, cytotoxicity control for non-replicating M. tuberculosis project (AID 489025); assay type: functional
[11] = Vero E6 cell cytotoxicity, dose response, cytotoxicity control for non-replicating M. tuberculosis project, secondary assay (AID 492998); assay type: functional, VeroE6; conditions: Vero C1008
cells [12] = assay type: functional
INS1 = experiment: INS-1E survival protection against cytokine death – cell-based, luminescence, retest, dose response (AID 449756); assay type: functional; conditions: Rattus norvegicus;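 also: cell death triggered by IL-1 beta plus TNF-alpha plus IFN-gamma mixture; protective hits raise ATP signal compared with cytokine alone wells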
[13] = luciferase reporter signal reduction – luminescence, H4-C neuroglioblastoma cells, dose response (AID 2458); assay type: functional, cell-based;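 also: H4 neuroglioblastoma cells stably carrying a luciferase reporter gene fusion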
cells [14] = assay type: functional, cell-based
[15] = alpha-synuclein stem-loop translation blockers – luminescence, H4 neuroglioblastoma cells, dose confirmation, confirmation (AID 2454); assay type: functional, cell-based;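 also: H4 neuroglioblastoma cells carrying an alpha-synuclein 5'UTR luciferase reporter; potency for inhibition of the luciferase signal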
[16] = HEK-293T cell viability reduction – luminescence, B-cell screen hits, cytotoxicity control for BCR NF-kB inhibitor project, dose response (AID 489021); assay type: functional, cell-based;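 also: HEK-293T cells carrying an NF-kB luciferase reporter; cells exposed to compound for about 14 hours before viability readout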
[17] = NIH-3T3 fibroblast cytotoxicity, dose response, cytotoxicity control, cell-based, fluorescence, Alamar Blue, secondary assay (AID 2327); assay type: functional;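 also: NIH-3T3 mouse fibroblasts cultured with fluconazole at 8 µg/mL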
[18] = A cytotoxicity screen of small molecule inhibitors of the PhoP region in Salmonella typhi identified in the primary screen. [Related pubchem assays: 1850, 1864, 1985 ]; assay type: functional
[19] = fluconazole-exposed Candida albicans growth modulators – fluorescence, retest, confirmation (AID 2467); assay type: functional, cell-based
[20] = Luminescence Cell-Based Dose Retest to Confirm Inhibitors of Cancer Stem Cells. [Related pubchem assays (depositor defined):AID2717, AID2721]; assay type: functional; conditions: Homo sapiens
[21] = biological target: Eukaryotic translation initiation factor 4H (Homo sapiens, UniProt Q15056); experiment: eIF4H binding inhibition – biochemical, uHTS, fluorescence polarization, translation initiation inhibitor project, primary screen (AID 2012)
[22] = biological target: Polyadenylate-binding protein 1 (Homo sapiens, UniProt P11940); experiment: blockers of PABP interaction with poly(A) – biochemical, fluorescence polarization, […] (AID 2014)
[23] = biological target: G2/mitotic-specific cyclin-B1 (Homo sapiens, UniProt P14635); experiment: Counterscreen assay for inhibitors of Wee1 degradation: dose response cell-based assay to identify inhibitors of cyclin B degradation. [Related pubchem assays: 1410, 1321 ]; assay type: functional
Wee1-like protein kinase = Wee1-like protein kinase (Homo sapiens, UniProt P30291); experiment: Dose Response Cell-based Assay for Inhibitors of Wee1 Degradation. [Related pubchem assays: 1410, 1321 ]; assay type: functional
[24] = biological target: T3, Eukaryotic translation initiation factor 2-alpha kinase 3 (Homo sapiens, UniProt Q9NZJ5); experiment: Dose response cell-based high-throughput screening assay to measure PERK inhibition. [Related pubchem assays: 1416 ]; assay type: functional
[25] = biological target: T3, Eukaryotic translation initiation factor 2-alpha kinase 3; experiment: Counterscreen assay for PERK inhibitors: Dose response cell-based high throughput screening assay to measure inhibition of PERK at 6 hours. [Related pubchem assays: 1522, 1416 ]; assay type: functional
[26] = biological target: Guanyl-specific ribonuclease T1 (Aspergillus oryzae (strain ATCC 42149 / RIB 40), UniProt P00651); experiment: inhibition of ribonuclease T1 activity – biochemical, fluorescence polarization, 1536-well, counter-screen for TPT1 inhibitor project, dose response (AID 2167)
SUMO-activating enzyme [27] = biological target: T4, SUMO-activating enzyme (Homo sapiens, UniProt Q9UBT2); experiment: blockers of UBC9-mediated SUMO conjugation – biochemical, AlphaScreen, SUMOylation inhibitor project, confirmation (AID 2018); assay type: functional
SUMO-activating enzyme [28] = biological target: T4, SUMO-activating enzyme; experiment: blockers of SAE1/SAE2–UBC9 SUMO transfer – biochemical, HTRF, uHTS, primary screen (AID 2006); assay type: protein-complex assay
[29] = biological target: Likely tRNA 2'-phosphotransferase (Candida albicans (strain SC5314 / ATCC MYA-2876) (Yeast), UniProt Q5A7N4); experiment: inhibition of Candida TPT1 enzyme activity – biochemical, fluorescence polarization, dose response (AID 2160)
[30] = biological target: Induced myeloid leukemia cell differentiation protein Mcl-1 (Homo sapiens, UniProt Q07820); assay type: functional
[31] = biological target: Intestinal-type alkaline phosphatase (Homo sapiens, UniProt P09923); experiment: activation of human intestinal alkaline phosphatase – biochemical, dose response (AID 488873); assay type: functional
[32] = biological target: Intestinal-type alkaline phosphatase (Mus musculus, UniProt P24822); experiment: PubChem AID 488785; assay type: functional
[33] = biological target: T5, Alkaline phosphatase, tissue-nonspecific isozyme (Homo sapiens, UniProt P05186); experiment: TNAP enzyme inhibition by screening hits, dose response, selectivity assay for mouse IAP inhibitor project, biochemical, human TNAP, uHTS hits (AID 488906); assay type: functional
T5 sequence (P05186 whole entry): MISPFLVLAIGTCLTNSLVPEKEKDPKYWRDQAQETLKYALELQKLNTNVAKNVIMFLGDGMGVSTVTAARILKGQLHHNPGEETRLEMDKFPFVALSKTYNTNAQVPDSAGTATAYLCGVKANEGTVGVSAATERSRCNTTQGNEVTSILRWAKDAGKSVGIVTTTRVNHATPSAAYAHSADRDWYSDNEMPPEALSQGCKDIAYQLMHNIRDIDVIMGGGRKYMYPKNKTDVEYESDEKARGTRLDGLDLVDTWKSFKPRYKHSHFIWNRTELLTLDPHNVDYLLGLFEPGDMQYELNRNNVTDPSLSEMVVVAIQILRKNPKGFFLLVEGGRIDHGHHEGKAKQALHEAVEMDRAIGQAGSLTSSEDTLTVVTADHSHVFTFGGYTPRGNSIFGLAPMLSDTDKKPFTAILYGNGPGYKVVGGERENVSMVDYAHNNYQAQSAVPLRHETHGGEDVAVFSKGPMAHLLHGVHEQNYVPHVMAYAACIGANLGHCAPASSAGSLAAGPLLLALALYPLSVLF

Cysteine protease ATG4B = biological target: T6, Cysteine protease ATG4B (Homo sapiens, UniProt Q9Y4P1); assay type: functional;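 also: Fluorescence-based dose-response confirmation assay measuring inhibition of ATG4B activity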
T6 sequence (Q9Y4P1 whole entry): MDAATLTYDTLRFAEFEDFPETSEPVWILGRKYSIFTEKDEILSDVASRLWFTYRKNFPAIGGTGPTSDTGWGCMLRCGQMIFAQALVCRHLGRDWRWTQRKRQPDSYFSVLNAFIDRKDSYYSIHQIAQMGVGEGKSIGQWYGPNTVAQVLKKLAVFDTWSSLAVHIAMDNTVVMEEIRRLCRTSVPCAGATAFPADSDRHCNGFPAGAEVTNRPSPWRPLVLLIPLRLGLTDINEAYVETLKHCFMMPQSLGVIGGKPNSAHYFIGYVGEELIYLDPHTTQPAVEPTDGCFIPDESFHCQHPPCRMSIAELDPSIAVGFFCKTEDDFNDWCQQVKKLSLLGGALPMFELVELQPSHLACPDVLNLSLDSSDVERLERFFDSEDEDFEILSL

Phospholipase A2 = Phospholipase A2 (Homo sapiens, UniProt P04054); assay type: functional;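 also: confirmatory dose-response counterscreen on phospholipase A2, testing hits that came from an ultra-high-throughput screen for ATG4B inhibitors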
[34] = biological target: T5, Alkaline phosphatase, tissue-nonspecific isozyme
[35] = biological target: C-C chemokine receptor type 6 (Homo sapiens, UniProt P51684); experiment: antagonism of CCR6 beta-arrestin recruitment – cell-based, luminescent beta-arrestin readout, dose response (AID 504728); assay type: functional
Beta-galactosidase = Beta-galactosidase (Escherichia coli, UniProt Q8VNN2); experiment: detection-enzyme interference by beta-gal modulators – biochemical, E. coli enzyme, set 3, artefact control for CCR6 antagonist project, dose response (AID 504712); assay type: functional

T4 sequence (Q9UBE0 whole entry): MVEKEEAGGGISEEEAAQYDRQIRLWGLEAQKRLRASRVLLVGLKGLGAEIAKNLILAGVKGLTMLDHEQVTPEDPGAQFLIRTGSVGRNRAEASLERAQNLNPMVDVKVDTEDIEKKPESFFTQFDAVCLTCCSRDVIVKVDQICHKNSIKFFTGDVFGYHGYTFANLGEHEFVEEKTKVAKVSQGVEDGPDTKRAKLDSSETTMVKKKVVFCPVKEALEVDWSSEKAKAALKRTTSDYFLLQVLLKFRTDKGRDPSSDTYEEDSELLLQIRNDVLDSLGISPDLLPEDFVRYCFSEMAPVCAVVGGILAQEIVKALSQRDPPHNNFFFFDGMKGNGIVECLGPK
T4 sequence (Q9UBT2 whole entry): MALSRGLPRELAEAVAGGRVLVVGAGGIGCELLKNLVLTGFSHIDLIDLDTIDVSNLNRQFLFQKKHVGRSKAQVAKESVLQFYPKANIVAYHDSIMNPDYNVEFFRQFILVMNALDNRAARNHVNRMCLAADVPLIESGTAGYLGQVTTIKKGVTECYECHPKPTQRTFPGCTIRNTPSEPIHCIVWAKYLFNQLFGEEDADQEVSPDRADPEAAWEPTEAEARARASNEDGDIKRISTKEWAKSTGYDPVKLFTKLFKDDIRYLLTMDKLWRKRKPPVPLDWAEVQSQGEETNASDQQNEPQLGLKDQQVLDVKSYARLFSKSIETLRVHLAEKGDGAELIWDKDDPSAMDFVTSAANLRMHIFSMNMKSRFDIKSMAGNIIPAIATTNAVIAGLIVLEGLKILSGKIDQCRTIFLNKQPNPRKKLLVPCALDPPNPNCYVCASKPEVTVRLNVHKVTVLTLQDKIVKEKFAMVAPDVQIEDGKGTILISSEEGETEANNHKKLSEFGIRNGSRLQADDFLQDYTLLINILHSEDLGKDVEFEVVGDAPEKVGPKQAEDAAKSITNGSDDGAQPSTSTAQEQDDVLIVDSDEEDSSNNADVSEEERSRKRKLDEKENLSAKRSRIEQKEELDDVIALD
T3 sequence (Q9NZJ5 whole entry): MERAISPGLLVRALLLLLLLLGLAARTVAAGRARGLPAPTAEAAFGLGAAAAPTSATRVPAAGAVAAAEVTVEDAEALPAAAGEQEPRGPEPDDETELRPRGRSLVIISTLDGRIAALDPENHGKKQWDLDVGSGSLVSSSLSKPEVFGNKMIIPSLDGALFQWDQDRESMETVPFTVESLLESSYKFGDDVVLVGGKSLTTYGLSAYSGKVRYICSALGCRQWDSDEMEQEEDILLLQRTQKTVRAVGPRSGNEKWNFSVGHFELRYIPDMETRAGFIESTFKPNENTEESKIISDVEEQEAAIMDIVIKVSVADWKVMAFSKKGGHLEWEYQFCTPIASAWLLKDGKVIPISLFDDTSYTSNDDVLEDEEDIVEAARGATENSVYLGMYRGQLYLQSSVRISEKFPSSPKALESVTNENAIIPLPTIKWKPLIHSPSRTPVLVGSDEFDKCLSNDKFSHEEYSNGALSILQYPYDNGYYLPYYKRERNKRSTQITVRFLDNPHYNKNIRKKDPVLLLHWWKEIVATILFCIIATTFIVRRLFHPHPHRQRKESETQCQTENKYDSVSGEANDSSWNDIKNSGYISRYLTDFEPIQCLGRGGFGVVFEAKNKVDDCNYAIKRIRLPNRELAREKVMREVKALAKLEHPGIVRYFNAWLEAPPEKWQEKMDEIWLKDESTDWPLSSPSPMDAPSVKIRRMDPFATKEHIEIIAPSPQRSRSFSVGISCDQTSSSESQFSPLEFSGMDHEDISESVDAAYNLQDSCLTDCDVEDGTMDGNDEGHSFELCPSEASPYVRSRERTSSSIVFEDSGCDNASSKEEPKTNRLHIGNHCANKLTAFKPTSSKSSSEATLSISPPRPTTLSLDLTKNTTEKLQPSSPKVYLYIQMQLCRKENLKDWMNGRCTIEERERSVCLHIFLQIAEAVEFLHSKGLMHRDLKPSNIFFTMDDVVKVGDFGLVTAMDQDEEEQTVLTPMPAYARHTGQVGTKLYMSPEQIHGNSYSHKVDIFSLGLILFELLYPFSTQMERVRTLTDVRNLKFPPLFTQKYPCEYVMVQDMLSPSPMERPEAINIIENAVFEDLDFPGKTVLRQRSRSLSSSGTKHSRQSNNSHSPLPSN
Sequence of G2/mitotic-specific cyclin-B1 (P14635 whole entry): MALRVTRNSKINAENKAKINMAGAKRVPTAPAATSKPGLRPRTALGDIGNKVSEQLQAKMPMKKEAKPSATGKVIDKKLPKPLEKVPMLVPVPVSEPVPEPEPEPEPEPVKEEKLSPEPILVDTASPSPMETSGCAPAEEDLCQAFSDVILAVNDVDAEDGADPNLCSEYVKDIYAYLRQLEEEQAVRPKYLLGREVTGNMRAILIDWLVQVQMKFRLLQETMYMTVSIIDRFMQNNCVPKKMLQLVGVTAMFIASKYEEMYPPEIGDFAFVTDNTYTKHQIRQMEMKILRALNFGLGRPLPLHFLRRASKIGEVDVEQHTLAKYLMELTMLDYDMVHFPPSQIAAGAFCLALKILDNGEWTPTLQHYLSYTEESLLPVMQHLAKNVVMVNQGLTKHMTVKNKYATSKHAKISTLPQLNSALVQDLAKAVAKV
Sequence of Serine/threonine-protein phosphatase PP1-alpha catalytic subunit (P62136 whole entry): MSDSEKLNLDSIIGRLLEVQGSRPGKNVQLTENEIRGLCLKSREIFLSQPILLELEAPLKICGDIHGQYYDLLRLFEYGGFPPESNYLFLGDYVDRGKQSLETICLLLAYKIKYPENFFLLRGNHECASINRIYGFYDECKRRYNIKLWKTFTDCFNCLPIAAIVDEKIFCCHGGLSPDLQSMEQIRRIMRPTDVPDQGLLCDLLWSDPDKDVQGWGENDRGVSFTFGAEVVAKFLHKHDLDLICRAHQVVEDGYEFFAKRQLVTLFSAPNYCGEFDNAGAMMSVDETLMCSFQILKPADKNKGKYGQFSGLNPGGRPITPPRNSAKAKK
Sequence of Likely tRNA 2'-phosphotransferase (Q5A7N4 whole entry): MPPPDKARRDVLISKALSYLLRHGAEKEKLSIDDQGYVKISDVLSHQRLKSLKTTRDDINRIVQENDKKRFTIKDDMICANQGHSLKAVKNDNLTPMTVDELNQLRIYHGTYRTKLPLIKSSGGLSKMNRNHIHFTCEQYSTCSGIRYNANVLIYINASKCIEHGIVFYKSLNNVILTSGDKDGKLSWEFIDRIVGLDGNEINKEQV
Sequence of Phospholipase A2 (P04054 whole entry): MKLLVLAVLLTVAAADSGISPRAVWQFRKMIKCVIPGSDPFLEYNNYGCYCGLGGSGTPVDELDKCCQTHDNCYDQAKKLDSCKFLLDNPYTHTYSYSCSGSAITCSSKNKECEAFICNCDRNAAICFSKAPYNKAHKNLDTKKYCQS
Sequence of Serine/threonine-protein phosphatase (Q9BPW0 whole entry): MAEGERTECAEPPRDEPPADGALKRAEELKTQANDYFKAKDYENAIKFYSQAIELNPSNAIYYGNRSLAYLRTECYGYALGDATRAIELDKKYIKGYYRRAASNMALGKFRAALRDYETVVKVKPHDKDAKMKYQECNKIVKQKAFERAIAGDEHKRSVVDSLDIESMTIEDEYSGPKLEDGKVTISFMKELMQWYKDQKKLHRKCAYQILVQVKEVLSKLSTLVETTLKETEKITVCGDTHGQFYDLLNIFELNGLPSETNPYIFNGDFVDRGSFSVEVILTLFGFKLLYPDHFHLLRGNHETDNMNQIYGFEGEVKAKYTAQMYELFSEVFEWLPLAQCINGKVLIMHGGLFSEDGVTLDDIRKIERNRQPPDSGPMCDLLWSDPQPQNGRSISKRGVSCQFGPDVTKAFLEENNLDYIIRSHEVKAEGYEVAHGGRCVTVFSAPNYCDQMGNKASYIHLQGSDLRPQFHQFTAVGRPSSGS
Sequence of C-C chemokine receptor type 6 (P51684 whole entry): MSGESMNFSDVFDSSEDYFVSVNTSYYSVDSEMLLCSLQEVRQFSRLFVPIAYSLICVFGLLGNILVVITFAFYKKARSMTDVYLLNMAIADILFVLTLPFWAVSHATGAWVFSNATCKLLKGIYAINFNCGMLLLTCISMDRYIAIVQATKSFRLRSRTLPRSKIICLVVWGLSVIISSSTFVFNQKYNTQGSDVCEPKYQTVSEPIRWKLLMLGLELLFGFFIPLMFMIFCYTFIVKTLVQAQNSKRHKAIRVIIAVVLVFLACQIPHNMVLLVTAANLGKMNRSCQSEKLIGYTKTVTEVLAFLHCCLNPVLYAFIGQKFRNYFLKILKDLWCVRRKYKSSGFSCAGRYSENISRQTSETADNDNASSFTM
Sequence of Wee1-like protein kinase (P30291 whole entry): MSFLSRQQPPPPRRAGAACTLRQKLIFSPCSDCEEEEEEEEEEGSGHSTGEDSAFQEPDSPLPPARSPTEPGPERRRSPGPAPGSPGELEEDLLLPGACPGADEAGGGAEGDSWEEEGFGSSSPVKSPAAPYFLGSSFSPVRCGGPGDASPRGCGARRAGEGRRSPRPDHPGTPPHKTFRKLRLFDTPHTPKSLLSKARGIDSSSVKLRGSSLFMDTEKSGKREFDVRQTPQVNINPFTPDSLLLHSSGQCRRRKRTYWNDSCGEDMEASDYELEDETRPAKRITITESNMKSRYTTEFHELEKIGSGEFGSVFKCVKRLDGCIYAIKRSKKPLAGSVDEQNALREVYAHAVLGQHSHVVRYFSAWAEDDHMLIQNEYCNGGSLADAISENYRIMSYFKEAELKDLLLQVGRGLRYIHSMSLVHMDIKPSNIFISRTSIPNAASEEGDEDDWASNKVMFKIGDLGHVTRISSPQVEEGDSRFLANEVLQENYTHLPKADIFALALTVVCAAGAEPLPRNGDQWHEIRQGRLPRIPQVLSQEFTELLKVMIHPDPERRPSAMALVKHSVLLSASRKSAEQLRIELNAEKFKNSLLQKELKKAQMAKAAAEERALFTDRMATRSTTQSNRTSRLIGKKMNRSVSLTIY

SMILES: Cc1ccc(-n2c(=S)[nH]c3c(oc4ccccc43)c2=O)cc1
- IC50 [1]: 4.75 µM (active)
- IC50 [2]: 6.54 µM (active)

SMILES: COc1cc2c(cc1OC)-c1c(OC)c(OC)cc3ccnc(c13)C2=O [OXOGLAUCINE]
- EC50 [3]: > 120 µM (not active)
- EC50 [4]: 68.6 µM (active)
- EC50 [5]: 9.88 µM (active)
- AC50 (Cytochrome P450 2D6): 10 µM (inconclusive)
- EC50 [6]: 0.834 µM (active)
- EC50 [7]: 7 µM (active)
- AC50 (Cytochrome P450 2C9): 39.8 µM (inconclusive)

SMILES: COc1ccc(/C=N/Nc2cc(C)nc(-n3nc(C)cc3C)n2)cc1
- IC50 [8]: 5.81 µM (active)
- IC50 [9]: > 67 µM (not active)
- CC50 [10]: 6.97 µM (active)
- CC50 [11]: 8.36 µM (active)
- IC50 (cells [12]): < 0.1 µM (active)
- AC50 (INS1): 2.42 µM (active)

SMILES: O=C(Nc1ccc(NC(=O)c2cc3ccccc3o2)cc1)c1ccc2c(c1)OCCO2
- EC50 [13]: 3.02 µM (active)
- EC50 (cells [14]): > 12 µM (not active)
- EC50 [5]: 12.7 µM (active)
- EC50 [7]: < 0.1 µM (active)
- EC50 [15]: 2.35 µM (active)
- IC50 [16]: > 80 µM (inactive)

SMILES: Cc1ccc(N/N=C/c2ccncc2)cc1
- EC50 [17]: 14.4 µM (active)
- EC50 [18]: > 50 µM (active)
- EC50 [19]: > 38 µM (not active)
- AC50 [20]: 4.65 µM (active)

SMILES: O=C(Nc1ccc2ncccc2c1)c1ccccc1
- IC50 [21]: > 100 µM (inactive)
- IC50 [22]: 14.2 µM (active)

SMILES: COc1ccccc1-c1ccc(SCc2ccccc2F)nn1
- EC50 [23]: > 49.7 µM (not active)
- EC50 (Wee1-like protein kinase): > 49.7 µM (not active)

SMILES: FC(F)(F)c1cccc(Oc2ccc3c(C(F)(F)F)cc(C(F)(F)F)nc3n2)c1
- EC50 [24]: > 55.7 µM (not active)
- EC50 [25]: > 55.7 µM (not active)

SMILES: O=C(NN1C(=O)/C(=C/C=C/c2ccco2)SC1=S)c1ccncc1
- IC50 [26]: 12.3 µM (not active)
- IC50 (SUMO-activating enzyme [27]): 0.53 µM (active)
- IC50 (SUMO-activating enzyme [28]): 6.1 µM (active)
- IC50 [29]: 14 µM (not active)
- IC50 [30]: 5.08 µM (active)
- EC50 [31]: > 100 µM (inactive)
- IC50 [32]: 13.5 µM (active)
- IC50 [33]: > 100 µM (inactive)
- IC50 (Cysteine protease ATG4B): 11.1 µM (active)
- IC50 (Phospholipase A2): > 80 µM (inactive)

SMILES: COc1cccc(N(C(=O)c2cc[nH]n2)C2(C(=O)Nc3c(C)cccc3C)CCCCC2)c1
- EC50 [34]: 52.9 µM (not active)

SMILES: CN(Cc1ccccc1)S(=O)(=O)c1ccc(NC(=S)NC(=O)C2CCCCC2)cc1
- IC50 [35]: > 66.6 µM (inactive)
- IC50 (Beta-galactosidase): > 66.6 µM (inactive)
